“Also recorded” adds a separate entry of the source.
Tests used:
[1] = test system: HFS (human foreskin fibroblast) cells; assay: Cell growth and viability of HFS normal cells; format: cell-based
Description: (§1) FIG. 3. Cell growth of HFS (normal) and LNCaP (transformed) cells treated with compound 8 over 72 h.
(§2) FIG. 4. Cell viability of HFS (normal) and LNCaP (transformed) cells treated with compound 8 over 72 h.
(§3) Recombinant HDAC1 and HDAC6 are used to evaluate the selective inhibitory potency of each compound. Cell based assays: Normal cells (Human Foreskin Fibroblast cells), LNCaP (human prostate cancer cells), MCF-7 (human breast cancer cells, A549 (human adenocarcinoma of lung cells) and ARP-1 (human multiple myeloma cells) are used in these assays. Cells were cultured for up to 72 hr without and with the potential HDAC6-selective inhibitor. SAHA was used as a control. Cell number and cell viability were determined by enumeration. Proteins were extracted from cells and assayed for accumulation of acetylated tubulin and acetylated histones. All methods are described in Namdar et al., PNAS, 2010, 107:20003-8. In vivo animal studies: Potential HDAC6 inhibitor compounds are further assayed by administration to mice for up to 5 days with daily injections. Animals are sacrificed and tissues are analyzed for accumulation of acetylated tubulin and acetylated histones.
(§4) The effect of compound 8 on the cell growth and viability of normal (HFS, human foreskin fibroblast) and transformed (LNCaP, human prostate adenocarcinoma) cells cultured with 8, 16, 32 or 64 μM HPB for up to 72 h was evaluated.

[2] = test system: acetylated alpha-tubulin and histones in CWR22 tumors and spleen; assay: Acetylated lysine patterns in CWR22 tumors and spleen; format: in vivo, nude mice
Text: Tumors and spleen are removed from the animals, and histones and proteins are extracted for the detection of acetylated lysine patterns.

HFS (normal) cells = assay: Combination with anti-cancer agents in HFS cells; format: cell-based, human; conditions: compound 8 alone or in combination with etoposide, paclitaxel, or SAHA, 72 h
[3] = test system: LNCaP (human prostate adenocarcinoma) cells; assay: Cell growth and viability of LNCaP cells; format: cell-based
Description: as §1, §2, §3, §4

[4] = test system: acetylated alpha-tubulin and acetylated histone H3 in LNCaP (human prostate cancer cells); assay: Accumulation of acetylated proteins in LNCaP cells (western blot); format: cell-based; conditions: transformed cells, concentrations as high as 16 μM

**Q.** Which results are given for `O=C(NO)c1ccc(CN(CCO)C(=O)Cc2ccccc2)cc1` [Compound 8, N-hydroxy-4-((N-(2-hydroxyethyl)-2-phenylacetamido)methyl) benzamide]?
**A.** cell growth ([1]; HFS, 8, 16, 32 or 64 μM, up to 72 h, FIG. 3): inhibited cell growth of normal and transformed cells in a concentration dependent manner; cell death / cell viability ([1]; HFS, 8, 16, 32 or 64 μM, up to 72 h, FIG. 4): did not induce cell death of normal or transformed cells; normal cell death ([1]; concentrations ≤16 μM): do not induce normal cell death; accumulation of acetylated alpha-tubulin in CWR22 tumors and spleen, combination with etoposide ([2]; combination of compound 8 and etoposide): increased accumulation of acetylated alpha-tubulin; accumulation of histones in tumors, combination with etoposide ([2]; combination of etoposide and compound 8): Increased levels of accumulation of histones; accumulation of histones in tumors, single agent ([2]; mice injected with compound 8 alone or etoposide): not with compound 8 alone; accumulation of acetylated alpha-tubulin in CWR22 tumors and spleen, single agent ([2]; mice treated with compound 8 or etoposide): increased accumulation of acetylated alpha-tubulin; cell growth (HFS (normal) cells): inhibits cell growth; cell viability (HFS (normal) cells): does not induce loss of cell viability; cell growth (cell number) ([3]; LNCaP, 8, 16, 32 or 64 μM, up to 72 h, FIG. 3): inhibited cell growth of normal and transformed cells in a concentration dependent manner; also recorded: inhibited cell number; cell death / cell viability ([3]; LNCaP, 8, 16, 32 or 64 μM, up to 72 h, FIG. 4): did not induce cell death of normal or transformed cells; also recorded: does not decrease cell viability; death of LNCaP cells ([3]; concentrations as high as 32 μM): no detectable death of LNCaP cells; accumulation of acetylated PRX [4]: selectively induced accumulation of acetylated alpha-tubulin and acetylated PRX
